Source: patent publication US20210290153A1, “DRUG DELIVERY DEVICES HAVING ADSORBED MEDICATION ADHERENCE MARKERS THEREON, PACKAGING INCLUDING THE SAME AND METHODS OF FORMING THE SAME” (Xhale, Inc., priority 2018, published 2021)

Settings: maltodextrin-coated vitamin tablet sealed approximately one week with sorbent pad loaded with approximately 200 mg 2-butanol; ingested; breath at approximately 10 minutes after ingestion
Protocol: Referring to FIG. 3, a vitamin tablet was dipped into a maltodextrin/water solution and the tablet was allowed to dry. A tiny sorbent pad loaded with approximately 200 mg of 2-butanol was added to the bottom of a tiny plastic vial to simulate a blister cavity. The dry coated tablet was then added to the vial and sealed via a screw top. After approximately one week, the vial was opened and the tablet was ingested by an individual.

## CCC(C)O (stereo not shown) [2-butanol]
  2-butanone, a metabolite of 2-butanol, detected in the individual's breath: significant quantity
